Test results from paper PMC4949556, “Subtle Structural Differences Trigger Inhibitory Activity of Propafenone Analogues at the Two Polyspecific ABC Transporters: P‐Glycoprotein (P‐gp) and Breast Cancer Resistance Protein (BCRP)” (Chemmedchem, 2016).
Entries after “also recorded” stand apart in the source; their conditions may differ.

Experiments:
Type in all cases: cell-based
BCRP = biological target: T1, BCRP (Homo sapiens, UniProt Q9UNQ0); experiment: BCRP inhibition: steady-state mitoxantrone accumulation in BCRP-expressing PLB985 cells (flow cytometry); conditions: for IC50: BCRP IC50, mitoxantrone 7 μM, PLB985 BCRP cells, mean±SD, at least n=3 (11 a n=2); for Hill coefficient BCRP: Hill coefficient of IC50 measurement, mean ± SD of n experiments; for in vitro classification as BCRP inhibitor: IC50 below 10 μM considered active; for inhibition at 20 min, 100 µM: human, PLB985 cells stably expressing BCRP, pH 7.4, probe mitoxantrone (7 µM), 100µM compound, compared to positive control Ko143 (1µM) set as 100%, mean of 3 independent experiments, read-out: In vitro activity (% inhibition), BCRP, Table S1
T1 construct: expressed in transfected cells; host or cells: PLB985 human myeloid leukemia cells stably expressing BCRP (gift of B. Sarkadi and K. Nemet, Budapest)
Experimental: (§1) P‐gp and BCRP inhibitory activity was assessed by implementing an intracellular accumulation assay of daunorubicin or mitoxantrone in cells overexpressing P‐gp or BCRP, respectively. In a first run, the effect of compounds 5, 6, 10, 11, and 16 (Figure 2) at 100 μM final concentration was tested (Figure 3). All compounds showing an inhibitory effect of more than 50 % compared with full inhibition by the known inhibitors of P‐gp (verapamil) and BCRP (Ko143) were further processed, and IC50 values were determined (IC50 curves and Hill coefficients are available in Figure S1 and Table S3 in the Supporting Information). […] For P‐gp, nine compounds were classified as inhibitors (5 a, 5 b, 6 a, 10 a, 10 b, 11 b, 16 a, 16 b, 16 c).
(§2) Cell culture: The human myeloid leukemia PLB985 parental and stably expressing BCRP cell lines31 were kindly provided by B. Sarkadi (Institute of Enzymology, Research Centre for Natural Sciences, Budapest, Hungary) and K. Nemet (Creative Cell Ltd., Budapest, Hungary). Both cell lines were cultured in RPMI 1640 supplemented with 10 % FBS and 100 IU mL^−1 of penicillin and streptomycin. The human T‐lymphoblast cell line CCRF VCR1000, overexpressing P‐gp, was obtained by stepwise selection of CCRF‐CEM in vincristine‐containing medium32 and was kindly provided by V. Gekeler (Altana‐Pharma formerly Byk‐Gulden, Konstanz, Germany). CCRF VCR1000 cells were cultured in RPMI 1640 medium containing 20 % FBS and were treated regularly with vincristine (1 μg mL^−1) for about 72 h, followed by centrifugation (300 g, 5 min, RT) and resuspension in normal culture medium. All cell lines were maintained at 37 °C in an atmosphere containing 5 % CO2 with 95 % relative humidity.
(§3) Steady‐state accumulation experiments: For BCRP and P‐gp inhibition studies, the steady‐state accumulation of mitoxantrone (7 μM) and daunorubicin (3 μM), respectively, was performed as previously described.33 Briefly, cells were harvested, pelleted (300 g, 5 min, 4 °C), diluted to a concentration of 12×10^6 cells mL^−1 in HPMI (10 mM Hepes, 120 mM NaCl, 5 mM KCl, 0.4 mM MgCl2, 0.04 mM CaCl2, 10 mM glucose, 10 mM NaHCO3, 5 mM Na2HPO4, pH 7.4 with NaOH) and kept on ice for further processing. For each data point, the cell suspension (25 μL) was preincubated for 5 min at 37 °C with 2 % DMSO (25 μL) in HPMI alone (DMSO control) or containing different concentrations of test compound solutions. Thereafter, cells were preloaded with daunorubicin (50 μL) or mitoxantrone (50 μL) for 30 or 20 min at 37 °C, respectively, to reach a final concentration of 3 or 7 μM, respectively. […] Preloading was stopped by chilling cells on ice for 5 min followed by the addition of 400 μL ice‐cold PBS. Cells were pelleted (300 g, 5 min, 4 °C), the supernatant was discarded, and the cell pellet was resuspended in ice‐cold PBS (150 μL). Until measurement, cells were kept on ice and in the dark. Immediately before cell fluorescence measurement by flow cytometry (BD Accuri C6 and BD FACSCalibur, Becton Dickinson, San Jose, CA, USA; MACSQuant, MiltenyiBiotec GmbH, BergischGladbach, Germany), 50 μL of 4′,6‐diamidin‐2‐phenylindole solution (DAPI, 4 μg mL^−1 in PBS) was added to gate out dead cells. 100 μM verapamil and 1 μM Ko143 were used as positive controls for P‐gp and BCRP inhibition, respectively. […]

P-gp / BCRP = biological target: T2, P-gp / BCRP (Homo sapiens, UniProt Q9UNQ0); experiment: as above; conditions: human, pH 7.4, probe daunorubicin (3 µM) for P-gp; mitoxantrone (7 µM) for BCRP; IC50 P-gp / IC50 BCRP; read-out: selectivity index (SI) P-gp/BCRP
T2 construct: expressed in transfected cells; host or cells: PLB985 human myeloid leukemia cells stably expressing BCRP (gift of B. Sarkadi and K. Nemet, Budapest)
Experimental: as §1, §2, §3

P-gp = biological target: T3, P-gp (Homo sapiens, UniProt P08183); experiment: P-gp inhibition: steady-state daunorubicin accumulation in P-gp-overexpressing CCRF VCR1000 cells (flow cytometry); conditions: for Hill coefficient P-gp: Hill coefficient of IC50 measurement, mean ± SD of n experiments; for in vitro classification as P-gp inhibitor: IC50 below 10 μM considered active; for IC50: daunorubicin 3 μM, CCRF VCR1000 cells, mean±SD, at least n=3; for fold higher IC50 value for BCRP than for P-gp: ratio IC50 BCRP / IC50 P-gp; for inhibition at 30 min, 100 µM: human, CCRF VCR1000 cells overexpressing P-gp, pH 7.4, probe daunorubicin (3 µM), 100µM compound, compared to positive control verapamil (100µM) set as 100%, mean of 3 independent experiments, read-out: In vitro activity (% inhibition), P-gp, Table S2
T3 construct: was obtained by stepwise selection of CCRF‐CEM in vincristine‐containing medium; endogenous in cells; host or cells: CCRF VCR1000 (vincristine-selected subline of CCRF-CEM human T-lymphoblasts; gift of V. Gekeler)
Experimental: as §1, §2, §3

T3 sequence (P08183 whole entry): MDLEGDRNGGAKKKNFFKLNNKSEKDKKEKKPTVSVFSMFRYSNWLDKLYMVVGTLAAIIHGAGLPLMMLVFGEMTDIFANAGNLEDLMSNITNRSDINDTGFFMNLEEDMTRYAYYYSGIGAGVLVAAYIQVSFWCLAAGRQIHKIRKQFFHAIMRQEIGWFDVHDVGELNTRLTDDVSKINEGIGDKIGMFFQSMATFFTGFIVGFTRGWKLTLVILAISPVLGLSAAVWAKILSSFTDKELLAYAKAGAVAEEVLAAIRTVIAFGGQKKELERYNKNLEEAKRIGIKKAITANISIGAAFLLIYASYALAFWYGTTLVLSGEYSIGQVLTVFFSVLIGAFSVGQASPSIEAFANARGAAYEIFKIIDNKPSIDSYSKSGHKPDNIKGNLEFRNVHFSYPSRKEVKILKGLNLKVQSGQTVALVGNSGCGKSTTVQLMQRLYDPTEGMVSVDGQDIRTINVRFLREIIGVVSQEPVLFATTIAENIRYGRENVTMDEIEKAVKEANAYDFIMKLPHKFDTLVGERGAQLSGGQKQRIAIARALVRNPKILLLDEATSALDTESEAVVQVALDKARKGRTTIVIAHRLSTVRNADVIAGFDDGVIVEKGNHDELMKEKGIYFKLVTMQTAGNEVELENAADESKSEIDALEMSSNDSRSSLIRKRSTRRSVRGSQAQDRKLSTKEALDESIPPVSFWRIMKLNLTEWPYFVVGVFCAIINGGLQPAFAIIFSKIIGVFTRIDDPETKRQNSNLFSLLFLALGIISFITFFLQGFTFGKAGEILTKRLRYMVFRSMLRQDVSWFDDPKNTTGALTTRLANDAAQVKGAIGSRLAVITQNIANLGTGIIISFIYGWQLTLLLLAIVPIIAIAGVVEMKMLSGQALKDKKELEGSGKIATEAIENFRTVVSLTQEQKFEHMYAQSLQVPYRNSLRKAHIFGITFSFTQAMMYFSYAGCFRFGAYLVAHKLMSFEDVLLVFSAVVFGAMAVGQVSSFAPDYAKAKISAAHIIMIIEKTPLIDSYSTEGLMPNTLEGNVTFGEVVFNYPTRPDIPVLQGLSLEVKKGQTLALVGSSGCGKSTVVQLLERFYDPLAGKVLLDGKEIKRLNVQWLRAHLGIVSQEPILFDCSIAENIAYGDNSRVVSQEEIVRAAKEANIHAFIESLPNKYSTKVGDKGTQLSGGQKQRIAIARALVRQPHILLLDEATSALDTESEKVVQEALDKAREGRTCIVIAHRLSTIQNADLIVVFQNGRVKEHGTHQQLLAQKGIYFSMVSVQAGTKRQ
T1 sequence (Q9UNQ0 whole entry): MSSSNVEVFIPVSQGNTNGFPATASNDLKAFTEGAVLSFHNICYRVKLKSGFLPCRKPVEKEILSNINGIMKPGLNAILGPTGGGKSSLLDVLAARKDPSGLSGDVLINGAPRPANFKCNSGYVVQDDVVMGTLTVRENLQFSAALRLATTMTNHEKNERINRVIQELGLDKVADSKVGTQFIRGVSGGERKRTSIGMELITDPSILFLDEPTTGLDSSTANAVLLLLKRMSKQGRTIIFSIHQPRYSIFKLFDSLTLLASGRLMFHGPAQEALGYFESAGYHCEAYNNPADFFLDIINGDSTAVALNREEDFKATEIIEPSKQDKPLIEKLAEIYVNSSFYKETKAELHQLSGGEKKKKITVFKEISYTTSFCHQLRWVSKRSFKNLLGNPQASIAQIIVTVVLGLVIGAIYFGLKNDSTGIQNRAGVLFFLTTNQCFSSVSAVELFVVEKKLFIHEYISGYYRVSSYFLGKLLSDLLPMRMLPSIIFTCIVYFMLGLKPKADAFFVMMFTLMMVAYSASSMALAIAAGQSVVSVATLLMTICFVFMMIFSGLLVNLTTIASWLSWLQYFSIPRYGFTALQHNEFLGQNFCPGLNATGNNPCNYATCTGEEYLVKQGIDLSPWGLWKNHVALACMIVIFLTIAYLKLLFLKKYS
T2 sequence (Q9UNQ0 whole entry): as above

Row | SMILES | IC50 (BCRP) | Hill coefficient BCRP (BCRP) | in vitro classification as BCRP inhibitor (BCRP) | selectivity ratio (P-gp / BCRP) | Hill coefficient P-gp (P-gp) | in vitro classification as P-gp inhibitor (P-gp) | IC50 (P-gp) | fold higher IC50 value for BCRP than for P-gp (P-gp) | inhibition at 20 min, 100 µM (BCRP) | factor more active at P-gp than methoxy analogue 6 b (P-gp; P-gp, compared with 6 b) | fold more active at P-gp than analogue 11 a (P-gp; P-gp, compared with 11 a) | fold lower IC50 value for BCRP than for P-gp (BCRP; ratio IC50 P-gp / IC50 BCRP) | inhibition at 30 min, 100 µM (P-gp)
1 | O=C(CCc1ccccc1)c1ccccc1OCC(O)CNC(=O)C1CCCN1 (stereo not shown) [Compound 5 a, N ‐(2‐hydroxy‐3‐(2‐(3‐phenylpropanoyl)phenoxy)propyl)pyrrolidine‐2‐carboxamide] | 16.1 µM | 1.4±0.3 | borderline activity | 0.13 | 1.3±0.2 | inhibitors | 2.1 ± 0.4 µM | more than fivefold | – | – | – | – | –
2 | COc1ccc(C(=O)CCc2ccccc2)c(OCC(O)CNC(=O)C2CCCN2)c1 (stereo not shown) [Compound 5 b, N‐(2‐hydroxy‐3‐(5‐methoxy‐2‐(3‐phenylpropanoyl)phenoxy)propyl)‐pyrrolidine‐2‐carboxamide] | 3.1 ± 0.5 µM | 1.4±0.1 | inhibitors | – | 1.3±0.2 | inhibitors | 2.2 ± 0.6 µM | 1.4 fold | – | – | – | – | –
3 | CC(=O)c1ccccc1OCC(O)CNC(=O)C1CCCN1 (stereo not shown) [Compound 5 c, N ‐(3‐(2‐acetylphenoxy)‐2‐hydroxypropyl)pyrrolidine‐2‐carboxamide] | – | – | noninhibitors | – | 1.9±0.2 | noninhibitors | 58.7 ± 9.2 µM | – | 20% | – | – | – | –
4 | O=C(CCc1ccccc1)c1ccccc1OCC(O)CN1CC(=O)N2CCCC2C1=O (stereo not shown) [Compound 6 a, 2‐(2‐Hydroxy‐3‐(2‐(3‐phenylpropanoyl)phenoxy)propyl)‐hexahydropyrrolo[1,2‐a]pyrazine‐1,4‐dione] | 5.8 ± 1 µM | 0.9±0.1 | inhibitors | 0.27 | 2.6±0.4 | inhibitors | 1.6 ± 0.6 µM | more than 2.6 fold | – | 7 | tenfold | – | –
5 | COc1ccc(C(=O)CCc2ccccc2)c(OCC(O)CN2CC(=O)N3CCCC3C2=O)c1 (stereo not shown) [Compound 6 b, 2‐(2‐Hydroxy‐3‐(5‐methoxy‐2‐(3‐phenylpropanoyl)phenoxy)propyl)‐hexahydropyrrolo[1,2‐a]pyrazine‐1,4‐dione] | 3.8 ± 0.6 µM | 1.1±0.2 | inhibitors | 2.82 | 1.5±0.2 | borderline inhibitory activity | 11 ± 1 µM | – | – | – | – | 2.9 fold | –
6 | CC(=O)c1ccccc1OCC(O)CN1CC(=O)N2CCCC2C1=O (stereo not shown) [Compound 6 c, 2‐(3‐(2‐Acetylphenoxy)‐2‐hydroxypropyl)hexahydropyrrolo[1,2‐a]‐pyrazine‐1,4‐dione] | – | – | noninhibitors | – | – | noninhibitors | – | – | 33% | – | – | – | 4%
7 | O=C(CCc1ccccc1)c1ccccc1OCCNC(=O)C1CCCN1 (stereo not shown) [Compound 10 a, N ‐(2‐(2‐(3‐phenylpropanoyl)phenoxy)ethyl)pyrrolidine‐2‐carboxamide] | 3.3 ± 0.6 µM | 1.3±0.2 | inhibitors | – | 1.6±0.2 | inhibitors | 1.3 ± 0.1 µM | more than 2.6 fold | – | – | – | – | –
8 | COc1ccc(C(=O)CCc2ccccc2)c(OCCNC(=O)C2CCCN2)c1 (stereo not shown) [Compound 10 b] | 2.9 ± 0.5 µM | 1.0±0.1 | inhibitors | – | 1.1±0.1 | inhibitors | 1 ± 0.2 µM | more than 2.6 fold | – | – | – | – | –
9 | CC(=O)c1ccccc1OCCNC(=O)C1CCCN1 (stereo not shown) [Compound 10 c, N ‐(2‐(2‐acetylphenoxy)ethyl)pyrrolidine‐2‐carboxamide] | – | – | noninhibitors | – | 2.2±0.4 | noninhibitors | 34.8 ± 1.8 µM | – | 24% | – | – | – | –
10 | O=C(CCc1ccccc1)c1ccccc1OCCN1CC(=O)N2CCCC2C1=O (stereo not shown) [Compound 11 a, 2‐(2‐(2‐(3‐Phenylpropanoyl)phenoxy)ethyl)hexahydropyrrolo[1,2‐a]‐pyrazine‐1,4‐dione] | 21.5 ± 2.9 µM | 1.0±0.0 | weak inhibitor | – | 1.8±0.4 | borderline inhibitory activity; also recorded: borderline inhibitor | 13.9 ± 1.5 µM | 1.5 fold | – | – | – | – | –
11 | CC(=O)c1ccccc1OCCN1CC(=O)N2CCCC2C1=O (stereo not shown) [Compound 11 c, 2‐(2‐(2‐Acetylphenoxy)ethyl)hexahydropyrrolo[1,2‐a]pyrazine‐1,4‐dione] | – | – | noninhibitors | – | – | noninhibitors | – | – | 37% | – | – | – | 8%
12 | CC(C)NCC(O)COc1ccccc1C(=O)CCc1ccccc1 (stereo not shown) [Compound 16 a, 1‐(2‐(2‐Hydroxy‐3‐(isopropylamino)propoxy)phenyl)‐3‐phenyl‐propan‐1‐one] | – | – | – | – | 0.9±0.1 | inhibitors | 0.3 µM | more than fivefold | 53% | – | – | – | –
13 | CC(CF)NCC(O)COc1ccccc1C(=O)CCc1ccccc1 (stereo not shown) [Compound 16 b, 1‐(2‐(3‐((1‐Fluoropropan‐2‐yl)amino)‐2‐hydroxypropoxy)phenyl)‐3‐phenylpropan‐1‐one] | 5.5 ± 0.9 µM | 1.6±0.2 | inhibitors | – | 1.3±0.2 | inhibitors | 0.5 ± 0.1 µM | more than fivefold | – | – | – | – | –
14 | CC(NCC(O)COc1ccccc1C(=O)CCc1ccccc1)C(F)F (stereo not shown) [Compound 16 c, 1‐(2‐(3‐((1,1‐Difluoropropan‐2‐yl)amino)‐2‐hydroxypropoxy)phenyl)‐3‐phenylpropan‐1‐one] | 4.9 ± 1.1 µM | 1.0±0.2 | inhibitors | – | 1.5±0.1 | inhibitors | 0.9 ± 0.2 µM | more than fivefold | – | – | – | – | –
